Assay results reported in publication PMC10824102, “Identification of small molecule inhibitors of G3BP-driven stress granule formation” (The Journal of Cell Biology, 2024).

What was measured:
[1] = target: T1, NTF2L domain of G3BP1 (Homo sapiens, UniProt Q13283); assay: SPR binding of compounds to sensor-immobilized G3BP1; conditions: for Kd: equilibrium analysis, 1:1 binding model, 25°C, pH 7.4; for Kd of inactive enantiomer relative to active compound: SPR, same domain
T1 construct: made in house; host or cells: E. coli BL21 (DE3)
Method: Binding affinity for G3BP1 was measured by SPR assay using a Biacore 8K instrument (Cytiva) at 25°C at pH 7.4 (20 mM Tris, 300 mM NaCl, 0.05% Tween-20, 2% DMSO) using neutravidin sensor chips. The binding of solution phase molecules was measured to sensor-bound biotinylated, AVI-tagged versions of the NTF2L domain of G3BP1. G3BP1 was captured on the sensor surface at the beginning of each experiment at a level of ∼1,000 RU. A neutravidin-only surface was used as a reference. Binding affinity was measured by equilibrium analysis of double-reference subtracted data performed at seven different analyte concentrations. A 1:1 binding model was used to estimate affinity; the maximum binding response was typically about 90% of the theoretical maximum for a 1:1 interaction given the size of the protein and analytes. Binding at the end of a 90-s association phase was measured; data were only used where equilibrium binding was reached. No regeneration was performed between binding cycles as all tested molecules dissociated completely from the sensor at the end of each cycle. Estimation of binding affinity by kinetic analysis was not performed as kinetic constants were beyond the range that could be reliably measured by the instrumentation.

[2] = tested on: VCP A232E-induced stress granules in U2OS cells with tdTomato-tagged endogenous G3BP1; assay: Dissolution of stress granules induced by GFP-VCP A232E expression; type: cell-based; conditions: 50 μM for 30 min; automated puncta tracking for G3Ia, manual blinded cell tracking for G3Ib
Method: U2OS cells with knock-in of G3BP1-tdTomato ([Yang et al., 2020]) were seeded into 96-well plates (3904; Corning). Either GFP-VCP-A232E or GFP-FUS-R495X were transfected into cells using ViaFect transfection reagent (Promega) 24 h prior to the start of the experiment. For samples to be treated with compounds G3Ia or G3Ia′, Hoechst (1:5,000; Biotium) was added and incubated for 30 min prior to the start of the experiment, washed once with PBS, and the media was changed to 100 μl FluoroBrite DMEM media (Gibco) upon starting the experiment. Imaging of plates was performed on a Cytation C10 spinning disk confocal (BioTek) with a Hamamatsu Orca-Flash 4.0 camera using Gen5 software (version 3.11). Imaging was performed through an Olympus Plan Apo 40× 0.6 NA dry objective with an adjustable collar set to 0.5 μm thickness. Laser autofocus prior to imaging the tdTomato channel was utilized for each image. The temperature was maintained at 37°C on the instrument and the cells were supplied with 5% CO2. A 7 × 7 tilescan was taken at the center of each well, capturing the tdTomato and GFP channels (and Hoechst when present). After completing the tilescan, 100 μl FluoroBrite with 100 μM (2×) G3I compound (vortexed for 5 s) was added to each well and incubated for 20 min before starting another round of imaging in the same locations as the first round. Samples treated with G3Ib or G3Ib′ were analyzed manually, scoring each cell with spontaneous granules for the presence or absence of granules following treatment with the compound. For experiments in which G3I compounds were pretreated prior to transfection, 50 μM of indicated compound or vehicle control were added to U2OS cells 20 min prior to the addition of the transfection reagent. […]
Samples treated with G3Ia or G3Ia′ were analyzed using an automated pipeline. […]

[3] = tested on: stress granule formation in U2OS cells stably expressing G3BP1-GFP; assay: Preincubation, arsenite-induced stress granule formation, live cell imaging in U2OS; type: cell-based; conditions: for reduction of total stress granule area / reduction of stress granule formation compared with inactive enantiomer: 20 min pretreatment; for reduction of total stress granule area / stress granule formation: 500 μM NaAsO2; for reduction of stress granule formation compared with inactive enantiomer: 250 μM NaAsO2; for stress granule formation: any tested dose (5, 20, 50 μM)
Method: For preincubation of compounds, U2OS or HeLa cells stably expressing G3BP1-GFP or CRISPR-modified cells expressing TDP-43-GFP/G3BP1-GFP were seeded into eight-well Lab-Tek chambered cover glass (Nunc). […] This solution was vortexed for 5 s, added to the cells at 250 μl per well, and left to incubate on the microscope for 20 min. Conditions were maintained at 37°C and 5% CO2 using a Bold Line Cage Incubator (Okolab) and an objective heater (Bioptechs). During this incubation time, 5 xy fields were stored per condition, with each field having ∼20–30 cells within it. After the 20-min incubation, 250 μl of 500 μM or 1 mM (2×) sodium arsenite (Sigma-Aldrich) diluted in the FluoroBrite media with an appropriate amount of G3I compound or DMSO was added to the sample. Imaging began immediately after, with images at each xy field being taken every 1 min. For heat shock experiments, U2OS G3BP1-GFP-expressing cells were seeded into a 35-mm glass bottom dish (MatTek). Prior to the experiment, 1.5 ml FluoroBrite DMEM media (Gibco) supplemented with 10% FBS and 4 mM L-glutamine was combined with 0.1% DMSO or 50 μM G3I compound. The sample was incubated on the environmentally controlled microscope for 20 min. During this incubation time, 10 xy fields were stored per condition. After the 20-min incubation, acquisition began with each xy position being imaged every 30 s. 2 min into the acquisition, the objective heater was ramped to 43°C and maintained this temperature until ramped back down to 37°C at 32 min into the acquisition. All imaging was acquired on a Yokogawa CSU W1 spinning disk attached to a Nikon Ti2 eclipse with a Photometrics Prime 95B camera using Nikon Elements software (v5.20.00 to v5.21.02). Imaging was performed through a Nikon Plan Apo 60× 1.40 NA oil objective with Immersol 518 F (refractive index 1.518; Zeiss), and Perfect Focus 2.0 (Nikon) was engaged for all captures.
Automated granule detection and measurement were performed using a combination of ilastik and CellProfiler software. Briefly, ND2 multipoint timelapse files were resaved as image sequences in Fiji with the Bio-Formats plugin so that individual frames of the movies could be treated as individual images for analysis. From there, pixel classification in ilastik was used to segment both stress granules and the total cellular area within the field using the G3BP1-GFP channel via machine learning. These segmentations, along with the original G3BP1-GFP image, were input into CellProfiler, where objects were defined using the masks from ilastik.

T1 sequence (Q13283 11-133 limits assumed): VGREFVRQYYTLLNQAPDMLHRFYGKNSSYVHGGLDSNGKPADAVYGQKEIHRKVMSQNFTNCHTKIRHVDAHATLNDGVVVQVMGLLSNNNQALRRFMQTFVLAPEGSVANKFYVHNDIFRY

Compound | Kd [1] | dissolution of VCP A232E-induced stress granules [2] | reduction of total stress granule area ([3]; 5 μM) | reduction of total stress granule area ([3]; 20 μM) | reduction of stress granule formation compared with inactive enantiomer ([3]; 50 μM) | reduction of total stress granule area ([3]; 50 μM) | Kd of inactive enantiomer relative to active compound [1] | stress granule formation [3]
COCCC(NC(=O)C(C)NC(=O)C(NC(=O)C(NC(=O)C(F)CC(C)(C)C)C(C)(C)O)C(C)c1ccccc1)C(=O)N(C)Cc1ccccc1 (stereo not shown) [G3Ia] | 0.54 µM | 83% | ~36% | ~59% | ~86% | ~80% |  | 
COCCC(NC(=O)C(C)NC(=O)C(NC(=O)C(NC(=O)C(F)CC(C)(C)C)C(C)(C)O)C(C)c1ccccc1)C(=O)N(C)Cc1ccccc1 (stereo not shown) [G3Ia′] | 75.5 µM |  |  |  |  |  | > 100 fold | not significantly altered
CC(NC(=O)C(NC(=O)C(NC(=O)CCC(C)(C)C)C(C)(C)O)C(C)c1ccccc1)C(=O)N1CCCC1c1ccccc1 (stereo not shown) [G3Ib] | 0.15 µM | 69% | ~50% | ~85% | ~94% | ~93% |  | 
CC(NC(=O)C(NC(=O)C(NC(=O)CCC(C)(C)C)C(C)(C)O)C(C)c1ccccc1)C(=O)N1CCCC1c1ccccc1 (stereo not shown) [G3Ib′] | 44.5 µM | 6% |  |  |  |  | > 100 fold | not significantly altered
